From patent publication US12673925B2, “Compounds and compositions for eye treatments” (Avedro, Inc., priority 2018, dated 2026) come the findings set out here.

This experiment relates to cornea of porcine whole globes. As to the kind of experiment: Porcine eye corneal flattening assay. Conditions: de-epithelialized porcine cornea; 0.11% w/v in saline; UVA 4 mm circle, 365 nm, 30 mW/cm^2, pulsed, 16.2 min, 15 J, 90%+ oxygen, 37.0° C. The method, then:
Protocol 1 (For Examples 8, 9, 10, 17, 18, 19, 20, 28, and 29): Porcine whole globes in saline at 4° C. were warmed to room temperature. […] The eye holders were then positioned inside an enclosed chamber that allows for the control of atmosphere, temperature and humidity (typically a water bath at 37.0° C.). IOP is maintained at a constant pressure by the insertion of a blood bank buffered saline line from an IV bag at a standard height inserted into each eye via a syringe needle. 5% Dextran T500 in blood bank buffered saline is dropped onto the surface of the cornea of each eye every 90 sec for 2 hours to allow the eyes to stabilize. […] The test eye is then orientated in a vertical position and the pre-treatment surface keratometry of the cornea measured using a Pentacam® HR device fine cornea 100 scan. […] After a further 1.5 hours during which the 5% dextran drops are resumed the eye is orientated back to the vertical position and the post-treatment surface keratometry of the cornea measured using a Pentacam® HR device fine cornea 100 scan as before. The difference map between the pre and post treatment corneal images is obtained and the overall change in keratometry (Km) of the central 3 mm zone recorded as a change in diopters. […]

Structures are written as SMILES.

In the case of `Cc1cc2nc(-c3nnnn3C)c(=O)n(C[C@H](O)[C@H](O)[C@H](O)CO)c2cc1C` [Compound 40], the “Refractive Change (D)” value is given as −2.5 D.
